Laboratory results published in US8273774B2, “Phenoxypyridinylamide compounds” (AstraZeneca AB, priority 2008, dated 2012).

Biological target: recombinant Human Phosphodiesterase B2 (PDE4B2) (Homo sapiens, UniProt Q07343)
Experiment: Human Phosphodiesterase B2 Radiometric Assay
Type: biochemical
Settings: 0.1 μg/mL recombinant PDE4B2; preincubated at 30 C for 30 min; [3H]cyclic AMP 8 nM, stopped after 20 min; yttrium silicate SPA beads; read-out: PDE4B2 pIC50 (converted)
Summary of the method: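 Compounds preincubated 30 min at 30 C with 0.1 μg/mL recombinant PDE4B2 in 50 mM HEPES pH 7.5, 8.3 mM MgCl2, 1.7 mM EGTA, 0.01% Brij 35.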

recombinant Human Phosphodiesterase B2 (PDE4B2), sequence (Q07343 1-564 isoform Q07343-2): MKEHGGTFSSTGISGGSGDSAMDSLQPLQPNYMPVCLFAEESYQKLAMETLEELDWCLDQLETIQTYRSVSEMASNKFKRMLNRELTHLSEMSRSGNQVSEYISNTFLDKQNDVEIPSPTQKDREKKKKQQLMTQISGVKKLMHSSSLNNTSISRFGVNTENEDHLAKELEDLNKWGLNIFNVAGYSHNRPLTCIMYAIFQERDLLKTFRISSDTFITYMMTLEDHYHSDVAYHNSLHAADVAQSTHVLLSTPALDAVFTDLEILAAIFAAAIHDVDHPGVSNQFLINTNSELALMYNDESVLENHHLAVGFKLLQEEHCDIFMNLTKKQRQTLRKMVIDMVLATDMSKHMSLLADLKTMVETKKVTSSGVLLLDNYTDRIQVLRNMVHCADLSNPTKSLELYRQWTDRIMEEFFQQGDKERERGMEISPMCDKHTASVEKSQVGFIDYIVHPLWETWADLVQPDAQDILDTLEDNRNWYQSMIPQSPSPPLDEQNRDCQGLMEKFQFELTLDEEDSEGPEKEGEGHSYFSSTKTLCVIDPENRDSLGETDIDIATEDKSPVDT

IC50 [nM]	Structure (SMILES)
0.0501	O=C(N[C@H]1CC[C@@H](NC(=O)c2cc(F)cnc2Oc2cccc(-c3ccc(CCCN4CCNCC4)cc3)c2)CC1)c1cn2c(n1)CCCC2 [Example 137, N-((1s,4s)-4-(5-fluoro-2-(4′-(3-(piperazin-1-yl)propyl)biphenyl-3-yloxy)nicotinamido)cyclohexyl)-5,6,7,8-tetrahydroimidazo[1,2-a]pyridine-2-carboxamide]
0.0251	Cc1cc(C(=O)N[C@H]2CC[C@@H](NC(=O)c3cc(F)cnc3Oc3cccc(-c4ccc(CN5CCSCC5)cc4CN4CCOCC4)c3)CC2)nn1C [Example 138, N-((1s,4s)-4-(1,5-dimethyl-1H-pyrazole-3-carboxamido)cyclohexyl)-5-fluoro-2-(2′-(morpholinomethyl)-4′-(thiomorpholinomethyl)biphenyl-3-yloxy)nicotinamide]
0.0794	Cc1cc(C(=O)N[C@H]2CC[C@@H](NC(=O)c3cc(F)cnc3Oc3cccc(-c4cccc(CCCN5CCN[C@@H](C)C5)c4)c3)CC2)nn1C [Example 139, N-((1s,4s)-4-(1,5-dimethyl-1H-pyrazole-3-carboxamido)cyclohexyl)-5-fluoro-2-(3′-(3-((S)-3-methylpiperazin-1-yl)propyl)biphenyl-3-yloxy)nicotinamide]
0.0316	C[C@@H]1CN(CCCc2ccc(-c3cccc(Oc4ncc(F)cc4C(=O)N[C@H]4CC[C@@H](NC(=O)c5cc6n(n5)CCC6)CC4)c3)cc2)C[C@H](C)N1 [Example 140, N-((1s,4s)-4-(2-(4′-(3-((3S,5R)-3,5-dimethylpiperazin-1-yl)propyl)biphenyl-3-yloxy)-5-fluoronicotinamido)cyclohexyl)-5,6-dihydro-4H-pyrrolo[1,2-b]pyrazole-2-carboxamide]
0.0631	O=C(N[C@H]1CC[C@@H](NC(=O)c2cc(F)cnc2Oc2cccc(-c3ccc(CCCN4CCNCC4)cc3)c2)CC1)c1csc(CO)n1 [Example 141, N-((1s,4s)-4-(5-fluoro-2-(4′-(3-(piperazin-1-yl)propyl)biphenyl-3-yloxy)nicotinamido)cyclohexyl)-2-(hydroxymethyl)thiazole-4-carboxamide]
0.0251	Cc1cc(C(=O)N[C@H]2CC[C@@H](NC(=O)c3cc(F)cnc3Oc3cccc(-c4ccc(CCCN5CCNC[C@H]5C)cc4)c3)CC2)nn1C [Example 142, N-((1s,4s)-4-(1,5-dimethyl-1H-pyrazole-3-carboxamido)cyclohexyl)-5-fluoro-2-(4′-(3-((R)-2-methylpiperazin-1-yl)propyl)biphenyl-3-yloxy)nicotinamide]
0.0794	C[C@@H]1CN(CCCc2ccc(-c3cccc(Oc4ncc(F)cc4C(=O)N[C@H]4CC[C@@H](NC(=O)c5cc6ncccn6n5)CC4)c3)cc2)C[C@H](C)N1 [Example 143, N-((1s,4s)-4-(2-(4′-(3-((3S,5R)-3,5-dimethylpiperazin-1-yl)propyl)biphenyl-3-yloxy)-5-fluoronicotinamido)cyclohexyl)pyrazolo[1,5-a]pyrimidine-2-carboxamide]
0.0316	Cc1csc(C(=O)N[C@H]2CC[C@@H](NC(=O)c3cc(F)cnc3Oc3cccc(-c4ccc(CN5C[C@@H](C)N[C@@H](C)C5)cc4CN4CCOCC4)c3)CC2)n1 [Example 144, N-((1s,4s)-4-(2-(4′-(((3S,5R)-3,5-dimethylpiperazin-1-yl)methyl)-2′-(morpholinomethyl)biphenyl-3-yloxy)-5-fluoronicotinamido)cyclohexyl)-4-methylthiazole-2-carboxamide]
0.0316	C[C@@H]1CN(Cc2ccc(-c3cccc(Oc4ncc(F)cc4C(=O)N[C@H]4CC[C@@H](NC(=O)c5cccc6cccnc56)CC4)c3)c(CN3CCOCC3)c2)C[C@H](C)N1 [Example 146, N-((1s,4s)-4-(2-(4′-(((3S,5R)-3,5-dimethylpiperazin-1-yl)methyl)-2′-(morpholinomethyl)biphenyl-3-yloxy)-5-fluoronicotinamido)cyclohexyl)quinoline-8-carboxamide]
0.0501	C[C@@H]1CN(Cc2ccc(-c3cccc(Oc4ncc(F)cc4C(=O)N[C@H]4CC[C@@H](NC(=O)c5ccc6ccccc6n5)CC4)c3)c(CN3CCOCC3)c2)C[C@H](C)N1 [Example 147, N-((1s,4s)-4-(2-(4′-(((3S,5R)-3,5-dimethylpiperazin-1-yl)methyl)-2′-(morpholinomethyl)biphenyl-3-yloxy)-5-fluoronicotinamido)cyclohexyl)quinoline-2-carboxamide]
0.0398	Cc1csc(C(=O)N[C@H]2CC[C@@H](NC(=O)c3cc(F)cnc3Oc3cccc(-c4ccc(CCCN5CCNCC5)cc4)c3)CC2)n1 [Example 148, N-((1s,4s)-4-(5-fluoro-2-(4′-(3-(piperazin-1-yl)propyl)biphenyl-3-yloxy)nicotinamido)cyclohexyl)-4-methylthiazole-2-carboxamide]
0.0316	C[C@@H]1CN(CCCc2ccc(-c3cccc(Oc4ncc(F)cc4C(=O)N[C@H]4CC[C@@H](NC(=O)c5csc(CO)n5)CC4)c3)cc2)C[C@H](C)N1 [Example 149, N-((1s,4s)-4-(2-(4′-(3-((3S,5R)-3,5-dimethylpiperazin-1-yl)propyl)biphenyl-3-yloxy)-5-fluoronicotinamido)cyclohexyl)-2-(hydroxymethyl)thiazole-4-carboxamide]
0.0794	C[C@@H]1CN(CCCc2ccc(-c3cccc(Oc4ncc(F)cc4C(=O)N[C@H]4CC[C@@H](NC(=O)c5nc(CO)cs5)CC4)c3)cc2)C[C@H](C)N1 [Example 150, N-((1s,4s)-4-(2-(4′-(3-((3S,5R)-3,5-dimethylpiperazin-1-yl)propyl)biphenyl-3-yloxy)-5-fluoronicotinamido)cyclohexyl)-4-(hydroxymethyl)thiazole-2-carboxamide]
0.0631	C[C@@H]1CN(Cc2cccc(-c3cccc(Oc4ncc(F)cc4C(=O)N[C@H]4CC[C@@H](NC(=O)c5cc6ccccn6n5)CC4)c3)c2)C[C@H](C)N1 [Example 151, N-((1s,4s)-4-(2-(3′-(((3S,5R)-3,5-dimethylpiperazin-1-yl)methyl)biphenyl-3-yloxy)-5-fluoronicotinamido)cyclohexyl)pyrazolo[1,5-a]pyridine-2-carboxamide]
0.0398	Cc1cc(C(=O)N[C@H]2CC[C@@H](NC(=O)c3cc(F)cnc3Oc3cccc(-c4ccc(CCCNCCCO)cc4)c3)CC2)nn1C [Example 152, N-((1s,4s)-4-(1,5-dimethyl-1H-pyrazole-3-carboxamido)cyclohexyl)-5-fluoro-2-(4′-(3-(3-hydroxypropylamino)propyl)biphenyl-3-yloxy)nicotinamide]
0.0316	Cc1cccc(C(=O)N[C@H]2CC[C@@H](NC(=O)c3cc(F)cnc3Oc3cccc(-c4ccc(CCCN5CCNCC5)cc4)c3)CC2)n1 [Example 153, N-((1s,4s)-4-(5-fluoro-2-(4′-(3-(piperazin-1-yl)propyl)biphenyl-3-yloxy)nicotinamido)cyclohexyl)-6-methylpicolinamide]
0.0316	Cc1cc(C(=O)N[C@H]2CC[C@@H](NC(=O)c3cc(F)cnc3Oc3cccc(-c4ccc(CCN5CCC(N6CCCC6)CC5)cc4)c3)CC2)nn1C [Example 154, N-((1s,4s)-4-(1,5-dimethyl-1H-pyrazole-3-carboxamido)cyclohexyl)-5-fluoro-2-(4′-(2-(4-(pyrrolidin-1-yl)piperidin-1-yl)ethyl)biphenyl-3-yloxy)nicotinamide]
